One block for each compound: values may come before it. Active and inactive are the calls of the source.
Assays:
[1] = inhibitors of Bluetongue virus cytopathic effect, confirmation, arbovirus, BSR cells (AID 1250); format: functional;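 note: protection from viral cytopathic effect measured as cell viability by ATP luminescence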
[2] = HepG2 cell cytotoxicity, dose response, cytotoxicity control, plate reader, cherry-pick, antagonist series (AID 743416); format: functional, cell-based
[3] = HEK293 cell cytotoxicity, dose response, cytotoxicity control, plate reader, cherry-picked samples (AID 743446); format: functional, cell-based
[4] = A549 cell cytotoxicity, dose response, cytotoxicity control, plate reader, cherry-pick, antagonist series (AID 743412); format: functional, cell-based
[5] = LGR2 antagonists, dose response, cell-based, HEK293, CRE-luciferase reporter, cherry pick, set 2 (AID 743343); format: functional;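 note: transfected cells were stimulated with diluted bursicon conditioned medium after compound addition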
[6] = MC4R antagonists, dose response, counter-screen for LGR2 antagonist project, cell-based, plate reader, cherry pick (AID 743444); format: functional;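 note: transfected HEK 293 cells stimulated with alpha-MSH peptide; potency of inhibitors of the alpha-MSH evoked signal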
[7] = Luminescence-based counterscreen assay for KLF5 inhibitors: dose response cell-based high throughput screening assay to identify cytotoxic compounds using the IEC-6 intestinal epithelial cell line. [Related pubchem assays: 1700 (Primary screen.), 1834 (Confirmation screen.), 1858 (Summary AID.), 1905 (Counterscreen.)]; format: functional
[8] = target: Neuropeptide Y receptor type 2 (Homo sapiens, UniProt P49146); format: functional, cell-based;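 note: HEK293 cells expressing the receptor and a CNG channel; stimulus was NPY near EC95 followed by isoproterenol to raise cAMP; antagonist potency measured as restoring cAMP signal that NPY suppresses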
Sequence of Neuropeptide Y receptor type 2 (P49146 whole entry): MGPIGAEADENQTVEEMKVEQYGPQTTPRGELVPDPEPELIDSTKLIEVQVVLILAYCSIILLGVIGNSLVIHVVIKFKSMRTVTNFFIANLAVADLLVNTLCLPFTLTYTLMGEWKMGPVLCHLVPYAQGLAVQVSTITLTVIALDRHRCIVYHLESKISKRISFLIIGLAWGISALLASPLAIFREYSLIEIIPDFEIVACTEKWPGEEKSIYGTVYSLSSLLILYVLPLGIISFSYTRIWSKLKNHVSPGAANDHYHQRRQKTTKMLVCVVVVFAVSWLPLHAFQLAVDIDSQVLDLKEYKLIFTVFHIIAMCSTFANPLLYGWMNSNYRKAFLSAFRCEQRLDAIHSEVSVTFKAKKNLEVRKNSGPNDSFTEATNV

[9] = target: Neuropeptide Y receptor type 1 (Homo sapiens, UniProt P25929); format: functional;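 note: HEK293 cells with a CNG channel challenged with NPY then isoproterenol; potency as antagonist that reverses NPY suppression of cAMP signal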
Sequence of Neuropeptide Y receptor type 1 (P25929 whole entry): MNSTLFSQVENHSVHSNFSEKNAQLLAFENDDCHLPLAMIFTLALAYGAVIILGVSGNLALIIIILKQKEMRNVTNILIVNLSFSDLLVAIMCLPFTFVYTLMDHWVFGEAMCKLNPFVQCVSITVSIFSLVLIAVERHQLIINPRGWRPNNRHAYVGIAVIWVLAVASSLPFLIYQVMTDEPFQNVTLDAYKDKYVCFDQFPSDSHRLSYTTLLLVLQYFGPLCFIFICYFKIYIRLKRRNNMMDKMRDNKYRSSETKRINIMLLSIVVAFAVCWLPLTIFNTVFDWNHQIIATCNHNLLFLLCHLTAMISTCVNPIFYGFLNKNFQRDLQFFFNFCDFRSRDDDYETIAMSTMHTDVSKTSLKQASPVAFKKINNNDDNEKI

Protein skinhead-1 = target: T1, Protein skinhead-1 (Caenorhabditis elegans, UniProt P34707); format: functional
T1 sequence (P34707 whole entry): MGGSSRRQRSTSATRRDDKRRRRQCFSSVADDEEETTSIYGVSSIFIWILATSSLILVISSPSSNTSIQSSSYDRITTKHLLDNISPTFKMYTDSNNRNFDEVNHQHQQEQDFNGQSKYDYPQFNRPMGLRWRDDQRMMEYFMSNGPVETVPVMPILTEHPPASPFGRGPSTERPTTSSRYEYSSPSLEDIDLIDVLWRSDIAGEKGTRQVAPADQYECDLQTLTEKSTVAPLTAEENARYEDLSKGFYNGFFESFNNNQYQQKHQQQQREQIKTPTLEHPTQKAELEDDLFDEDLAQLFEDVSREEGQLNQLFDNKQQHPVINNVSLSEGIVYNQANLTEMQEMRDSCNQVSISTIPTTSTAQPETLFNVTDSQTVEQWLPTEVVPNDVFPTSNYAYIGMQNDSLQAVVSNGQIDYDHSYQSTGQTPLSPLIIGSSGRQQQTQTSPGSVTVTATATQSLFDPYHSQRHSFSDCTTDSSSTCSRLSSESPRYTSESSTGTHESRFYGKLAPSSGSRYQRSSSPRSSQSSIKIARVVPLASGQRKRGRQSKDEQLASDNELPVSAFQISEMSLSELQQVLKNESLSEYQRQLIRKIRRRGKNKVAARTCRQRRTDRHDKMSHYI

[10] = target: Mothers against decapentaplegic homolog 3 (Homo sapiens, UniProt P84022); assay: SMAD3 transcription factor inhibitors, dose response (AID 715); format: functional
Sequence of Mothers against decapentaplegic homolog 3 (P84022 whole entry): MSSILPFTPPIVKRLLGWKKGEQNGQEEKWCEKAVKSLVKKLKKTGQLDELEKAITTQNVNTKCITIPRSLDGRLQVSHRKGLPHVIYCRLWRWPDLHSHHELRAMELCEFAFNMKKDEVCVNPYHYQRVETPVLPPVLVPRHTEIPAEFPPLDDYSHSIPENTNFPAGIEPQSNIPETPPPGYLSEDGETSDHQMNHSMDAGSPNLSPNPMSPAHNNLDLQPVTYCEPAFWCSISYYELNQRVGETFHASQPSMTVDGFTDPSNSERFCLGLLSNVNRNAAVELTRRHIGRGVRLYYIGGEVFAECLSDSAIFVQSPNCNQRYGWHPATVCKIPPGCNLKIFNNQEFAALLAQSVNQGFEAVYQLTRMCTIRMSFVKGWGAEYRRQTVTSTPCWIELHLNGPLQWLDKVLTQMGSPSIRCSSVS

IC50 [1]: 24 µM (active)
Structure (SMILES): CC1CCc2c(sc(NC(=O)c3ccccc3C(=O)O)c2C#N)C1 (stereo unspecified)

Structure (SMILES): CCc1ccc(C(=O)Nc2nc3ccccc3[nH]2)cc1
AC50 [2]: 29.3 µM (active)
AC50 [3]: 28.4 µM (active)
AC50 [4]: 31.8 µM (active)
AC50 [5]: 1.27 µM (active)
AC50 [6]: 1.45 µM (active)
IC50 [7]: 22.1 µM (not active)

IC50 [8]: 15.1 µM (not active)
IC50 [9]: 13.4 µM (not active)
IC50 (Protein skinhead-1): > 100 µM (inactive)
Structure (SMILES): Clc1ccc(-c2nnn(Cc3nc4ccccc4s3)n2)cc1

IC50 [10]: 8.78 µM (active)
Structure (SMILES): CCCc1cc(=O)[nH]c(N=C(NC(=O)C(C)N2C(=O)c3ccccc3C2=O)Nc2ccccc2)n1 (stereo unspecified)
